Activity calls are given as the source filed them. The rule behind the calls is not given here.

One series has as its system Influenza A virus. The series can be described thus: Antiviral activity against Influenza A virus (A/Victoria/3/1975(H3N2)) infected in MDCK cells assessed as reduction in virus-induced cytopathogenicity incubated for 48 hrs by SRB assay. In kind it is functional, organism-based.
Settings: not given
One may read the IC50 as the midpoint of a concentration-inhibition curve. As for `COc1cc(CN2CCN(c3ccc(F)cc3)CC2)c2cc3[n+](cc2c1O)CCc1cc2c(cc1-3)OCO2.[Cl-]`, the concentration for half-maximal inhibition (IC50) came out at 1.15 µg/mL.

The test system of a further series is Influenza A virus. The series can be described thus: Antiviral activity against Influenza A virus (A/Puerto Rico/8/1934(H1N1)) infected in MDCK cells assessed as reduction in virus-induced cytopathogenicity incubated for 48 hrs by SRB assay. In kind it is functional, organism-based.
Settings: not given
In general terms: Protection from cytopathic effect is a common read-out in antiviral testing.
With `COc1cc(CN2CCN(c3ccc(F)cc3F)CC2)c2cc3[n+](cc2c1O)CCc1cc2c(cc1-3)OCO2.[Cl-]`, the 50% inhibitory concentration (IC50) is 9.92 µg/mL.
With `COc1cc(CN2CCN(C(=O)c3ccccc3)CC2)c2cc3[n+](cc2c1O)CCc1cc2c(cc1-3)OCO2.[Cl-]`, the IC50 was > 50 µg/mL.
With `COc1cc(CN2CCN(c3ccc(F)cc3)CC2)c2cc3[n+](cc2c1O)CCc1cc2c(cc1-3)OCO2.[Cl-]`, the half-maximal inhibitory concentration (IC50) is 0.87 µg/mL.

Test system in the next series: not listed separately
The series is described as follows: Cytotoxicity against MDCK cells incubated for 48 hrs assessed as reduction in cell viability by SRB assay. The settings on record: dog. In kind it is cell-based, Canis lupus familiaris. In general terms: The SRB assay estimates cell density from bound dye.
The CC50 is the concentration that lowers cell viability or growth by half. Take `COc1cc(CN2CCN(c3ccc(F)cc3F)CC2)c2cc3[n+](cc2c1O)CCc1cc2c(cc1-3)OCO2.[Cl-]`: the half-maximal cytotoxic concentration (CC50) at 48 h was determined as 73.9 µg/mL.
Still for that read-out and setting: to `COc1cc(CN2CCN(C(=O)c3ccccc3)CC2)c2cc3[n+](cc2c1O)CCc1cc2c(cc1-3)OCO2.[Cl-]` belongs 424 µg/mL; to `COc1cc(CN2CCN(c3ccc(F)cc3)CC2)c2cc3[n+](cc2c1O)CCc1cc2c(cc1-3)OCO2.[Cl-]`, 72.6 µg/mL.

The next series concerns Influenza A virus. The series can be described thus: Antiviral activity against Influenza A virus (A/Puerto Rico/8/1934(H1N1)) infected in MDCK cells assessed as reduction in virus-induced cytopathogenicity treated 7 hrs after virus infection and measured after 48 hrs by SRB assay. In kind it is functional, organism-based.
Settings: not given
As for `COc1cc(CN2CCN(c3ccc(F)cc3)CC2)c2cc3[n+](cc2c1O)CCc1cc2c(cc1-3)OCO2.[Cl-]`, the IC50 amounted to 9.38 µg/mL.

For a further series, the system named is Influenza A virus. The series is described as follows: Antiviral activity against Influenza A virus (A/Puerto Rico/8/1934(H1N1)) infected in MDCK cells assessed as reduction in virus-induced cytopathogenicity treated 2 hrs before virus infection and measured after 48 hrs by SRB assay. In kind it is functional, organism-based.
Settings: not given
With `COc1cc(CN2CCN(c3ccc(F)cc3)CC2)c2cc3[n+](cc2c1O)CCc1cc2c(cc1-3)OCO2.[Cl-]`, the half-inhibitory concentration (IC50) was determined as 21.3 µg/mL.

For a further series, the system named is Influenza A virus. The series is described as follows: Antiviral activity against Influenza A virus (A/Puerto Rico/8/1934(H1N1)) infected in MDCK cells assessed as reduction in virus-induced cytopathogenicity treated immediately after virus infection and measured after 48 hrs by SRB assay. In kind it is functional, organism-based.
Settings: not given
With `COc1cc(CN2CCN(c3ccc(F)cc3)CC2)c2cc3[n+](cc2c1O)CCc1cc2c(cc1-3)OCO2.[Cl-]`, the IC50 was 0.89 µg/mL.

In a further series the test system is Influenza A virus. The series can be described thus: Antiviral activity against Influenza A virus (A/Puerto Rico/8/1934(H1N1)) infected in MDCK cells assessed as reduction in virus-induced cytopathogenicity at 1 ug/ml pre-incubated for 1 hr with virus before virus infection of cells and measured after 48 hrs by SRB assay. In kind it is functional, organism-based.
Settings: not given
Turning to `COc1cc(CN2CCN(c3ccc(F)cc3)CC2)c2cc3[n+](cc2c1O)CCc1cc2c(cc1-3)OCO2.[Cl-]`, the outcome was Active.

Another series has as its system Influenza A virus. The series is described as follows: Antiviral activity against Influenza A virus (A/Puerto Rico/8/1934(H1N1)) infected in MDCK cells assessed as reduction in virus-induced cytopathogenicity treated 1 hr after virus infection and measured after 48 hrs by SRB assay. In kind it is functional, organism-based.
Settings: not given
For `COc1cc(CN2CCN(c3ccc(F)cc3)CC2)c2cc3[n+](cc2c1O)CCc1cc2c(cc1-3)OCO2.[Cl-]`, the IC50 was determined as 1.22 µg/mL.

The next series relates to Influenza A virus. The series is described as follows: Antiviral activity against Influenza A virus (A/Puerto Rico/8/1934(H1N1)) infected in MDCK cells assessed as reduction in virus-induced cytopathogenicity treated 12 hrs after virus infection and measured after 48 hrs by SRB assay. In kind it is functional, organism-based.
Settings: not given
As for `COc1cc(CN2CCN(c3ccc(F)cc3)CC2)c2cc3[n+](cc2c1O)CCc1cc2c(cc1-3)OCO2.[Cl-]`, the half-maximal inhibitory concentration (IC50) came out at 23.2 µg/mL.

The test system of the next series is Influenza A virus. The series is described as follows: Antiviral activity against Influenza A virus (A/Puerto Rico/8/1934(H1N1)) infected in MDCK cells assessed as reduction in virus-induced cytopathogenicity treated 2 hrs after virus infection and measured after 48 hrs by SRB assay. In kind it is functional, organism-based.
Settings: not given
As for `COc1cc(CN2CCN(c3ccc(F)cc3)CC2)c2cc3[n+](cc2c1O)CCc1cc2c(cc1-3)OCO2.[Cl-]`, the IC50 amounted to 1.19 µg/mL.

The next series has as its system Influenza A virus. The series can be described thus: Antiviral activity against Influenza A virus (A/Puerto Rico/8/1934(H1N1)) infected in MDCK cells assessed as reduction in virus-induced cytopathogenicity treated 1 hr before virus infection and measured after 48 hrs by SRB assay.
Settings: not given
In kind it is functional, organism-based.
`COc1cc(CN2CCN(c3ccc(F)cc3)CC2)c2cc3[n+](cc2c1O)CCc1cc2c(cc1-3)OCO2.[Cl-]`: the IC50 came to 3.4 µg/mL.

In a further series the target is Neuraminidase (Influenza A virus (A/Puerto Rico/8/1934(H1N1)), UniProt P03468). The series can be described thus: Inhibition of neuraminidase in influenza A virus (A/Puerto Rico/8/1934(H1N1)) pre-incubated for 30 mins before NA-Star substrate addition for 30 mins by luminescence based assay.
Neuraminidase (Influenza A virus (A/Puerto Rico/8/1934(H1N1)), UniProt P03468), sequence (P03468 whole entry): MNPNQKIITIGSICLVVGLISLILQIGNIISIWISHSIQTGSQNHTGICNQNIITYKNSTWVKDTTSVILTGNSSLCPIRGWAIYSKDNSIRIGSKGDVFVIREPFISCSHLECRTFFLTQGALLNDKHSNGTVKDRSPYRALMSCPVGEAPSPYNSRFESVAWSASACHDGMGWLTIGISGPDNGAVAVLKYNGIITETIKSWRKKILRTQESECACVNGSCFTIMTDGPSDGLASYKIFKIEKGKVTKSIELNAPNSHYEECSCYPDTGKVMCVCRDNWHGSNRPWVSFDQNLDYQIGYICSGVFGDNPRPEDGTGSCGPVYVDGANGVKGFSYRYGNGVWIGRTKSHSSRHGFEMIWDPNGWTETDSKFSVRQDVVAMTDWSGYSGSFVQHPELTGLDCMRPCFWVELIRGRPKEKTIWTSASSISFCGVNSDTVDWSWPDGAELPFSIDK
Settings: not given
In general, Ki refers to a measure of affinity in units of concentration, obtained from inhibition or displacement. The low end stands for tighter binding, the high end for weaker binding. On to `COc1cc(CN2CCN(c3ccc(F)cc3F)CC2)c2cc3[n+](cc2c1O)CCc1cc2c(cc1-3)OCO2.[Cl-]`, for which the affinity, expressed as Ki, was 410 nM.
The same measure, in the same setting: to `COc1cc(CN2CCN(C(=O)c3ccccc3)CC2)c2cc3[n+](cc2c1O)CCc1cc2c(cc1-3)OCO2.[Cl-]` belongs 580 nM.
The same measure, in the same setting: to `COc1cc(CN2CCN(c3ccc(F)cc3)CC2)c2cc3[n+](cc2c1O)CCc1cc2c(cc1-3)OCO2.[Cl-]` belongs 480 nM.

A further series relates to Influenza A virus. The series can be described thus: Antiviral activity against Influenza A virus (A/Puerto Rico/8/1934(H1N1)) infected in MDCK cells assessed as reduction in virus-induced cytopathogenicity treated 6 hrs before virus infection and measured after 48 hrs by SRB assay. In kind it is functional, organism-based.
Settings: not given
Turning to `COc1cc(CN2CCN(c3ccc(F)cc3)CC2)c2cc3[n+](cc2c1O)CCc1cc2c(cc1-3)OCO2.[Cl-]`, the IC50 stood at 52.4 µg/mL.

In another series the target is Neuraminidase (Influenza A virus (A/Puerto Rico/8/1934(H1N1))) (UniProt P03468). The series is described as follows: Inhibition of neuraminidase in influenza A virus (A/Puerto Rico/8/1934(H1N1)) assessed as remaining enzyme activity at 1 ug/ml pre-incubated for 30 mins before NA-Star substrate addition for 30 mins by luminescence based assay.
Neuraminidase (Influenza A virus (A/Puerto Rico/8/1934(H1N1))), sequence (P03468 whole entry): as above
Settings: not given
With `COc1cc(CN2CCN(c3ccc(F)cc3)CC2)c2cc3[n+](cc2c1O)CCc1cc2c(cc1-3)OCO2.[Cl-]`, the Activity was determined as 23.4%.

The subject of the next series is Influenza A virus. The series can be described thus: Antiviral activity against Influenza A virus (A/Puerto Rico/8/1934(H1N1)) infected in MDCK cells assessed as reduction in virus-induced cytopathogenicity at 1 ug/ml treated before virus infection and measured after 48 hrs by SRB assay relative to untreated control.
Settings: not given
In kind it is functional.
Broadly, the inhibition is the drop in the measured response relative to a control, in per cent. On to `COc1cc(CN2CCN(c3ccc(F)cc3)CC2)c2cc3[n+](cc2c1O)CCc1cc2c(cc1-3)OCO2.[Cl-]`, for which the inhibition at 1 µg/mL amounted to 48.3%.

The subject of another series is Influenza A virus. The series is described as follows: Antiviral activity against Influenza A virus (A/Puerto Rico/8/1934(H1N1)) infected in MDCK cells assessed as reduction in virus-induced cytopathogenicity treated 24 hrs after virus infection and measured after 48 hrs by SRB assay. In kind it is functional, organism-based.
Settings: not given
For `COc1cc(CN2CCN(c3ccc(F)cc3)CC2)c2cc3[n+](cc2c1O)CCc1cc2c(cc1-3)OCO2.[Cl-]`, the IC50 was > 100 µg/mL.

Another series concerns Influenza B virus. The series is described as follows: Antiviral activity against Influenza B virus (B/Lee/40) infected in MDCK cells assessed as reduction in virus-induced cytopathogenicity incubated for 48 hrs by SRB assay. The settings on record: B/Lee/1940, MDCK. In kind it is functional, organism-based.
As to `COc1cc(CN2CCN(c3ccc(F)cc3)CC2)c2cc3[n+](cc2c1O)CCc1cc2c(cc1-3)OCO2.[Cl-]`, the 50% inhibitory concentration (IC50) amounted to 4.12 µg/mL.

The target in a further series is Neuraminidase (Influenza A virus (A/Puerto Rico/8/1934(H1N1))) (UniProt P03468). The series can be described thus: Inhibition of neuraminidase in influenza A virus (A/Puerto Rico/8/1934(H1N1)) assessed as remaining enzyme activity at 10 ug/ml pre-incubated for 30 mins before NA-Star substrate addition for 30 mins by luminescence based assay.
Settings: not given
Consider `COc1cc(CN2CCN(c3ccc(F)cc3)CC2)c2cc3[n+](cc2c1O)CCc1cc2c(cc1-3)OCO2.[Cl-]`, for which the Activity was determined as 16.6%.

For the next series the target is unchanged. The series is described as follows: Inhibition of neuraminidase in influenza A virus (A/Puerto Rico/8/1934(H1N1)) assessed as remaining enzyme activity at 0.1 ug/ml pre-incubated for 30 mins before NA-Star substrate addition for 30 mins by luminescence based assay.
Settings: not given
Turning to `COc1cc(CN2CCN(c3ccc(F)cc3)CC2)c2cc3[n+](cc2c1O)CCc1cc2c(cc1-3)OCO2.[Cl-]`, the Activity was found to be 43.1%.

Another series deals with Influenza B virus. The series is described as follows: Antiviral activity against Influenza B virus (B/Maryland/1/59) infected in MDCK cells assessed as reduction in virus-induced cytopathogenicity incubated for 48 hrs by SRB assay. In kind it is functional, organism-based.
Settings: not given
As to `COc1cc(CN2CCN(c3ccc(F)cc3)CC2)c2cc3[n+](cc2c1O)CCc1cc2c(cc1-3)OCO2.[Cl-]`, the IC50 is 3.12 µg/mL.

The test system of another series is Influenza A virus. The series is described as follows: Antiviral activity against Influenza A virus (A/Puerto Rico/8/1934(H1N1)) infected in MDCK cells assessed as reduction in virus-induced cytopathogenicity treated 4 hrs after virus infection and measured after 48 hrs by SRB assay. In kind it is functional, organism-based.
Settings: not given
Turning to `COc1cc(CN2CCN(c3ccc(F)cc3)CC2)c2cc3[n+](cc2c1O)CCc1cc2c(cc1-3)OCO2.[Cl-]`, the half-maximal inhibitory concentration (IC50) was 1.75 µg/mL.

The values are drawn from ChEMBL document CHEMBL4177585, “Discovery of berberine based derivatives as anti-influenza agent through blocking of neuraminidase” (Bioorg Med Chem, 2017).
